Measured values reported in patent US20090298820A1, “3-SUBSTITUTED-1H-PYRROLO[2,3-B]PYRIDINE AND 3-SUBSTITUTED-1H-PYRROLO[3,2-B]PYRIDINE COMPOUNDS, THEIR USE AS MTOR KINASE AND PI3 KINASE INHIBITORS, AND THEIR SYNTHESES” (Wyeth, priority 2008, published 2009).

How the values were obtained:
Assay type in all cases: biochemical
[1] = biological target: mTOR (Homo sapiens, UniProt P42345); assay: mTOR enzyme assay (DELFIA format, His6-S6K substrate); conditions: read-out: mTOR Kinase Median IC50
[2] = biological target: PI3Kα (Homo sapiens, UniProt P42336); assay: PI3K-alpha fluorescence polarization assay; conditions: read-out: PI3Kα Median IC50
Chain of PI3Kα (P42336 whole entry, species assumed): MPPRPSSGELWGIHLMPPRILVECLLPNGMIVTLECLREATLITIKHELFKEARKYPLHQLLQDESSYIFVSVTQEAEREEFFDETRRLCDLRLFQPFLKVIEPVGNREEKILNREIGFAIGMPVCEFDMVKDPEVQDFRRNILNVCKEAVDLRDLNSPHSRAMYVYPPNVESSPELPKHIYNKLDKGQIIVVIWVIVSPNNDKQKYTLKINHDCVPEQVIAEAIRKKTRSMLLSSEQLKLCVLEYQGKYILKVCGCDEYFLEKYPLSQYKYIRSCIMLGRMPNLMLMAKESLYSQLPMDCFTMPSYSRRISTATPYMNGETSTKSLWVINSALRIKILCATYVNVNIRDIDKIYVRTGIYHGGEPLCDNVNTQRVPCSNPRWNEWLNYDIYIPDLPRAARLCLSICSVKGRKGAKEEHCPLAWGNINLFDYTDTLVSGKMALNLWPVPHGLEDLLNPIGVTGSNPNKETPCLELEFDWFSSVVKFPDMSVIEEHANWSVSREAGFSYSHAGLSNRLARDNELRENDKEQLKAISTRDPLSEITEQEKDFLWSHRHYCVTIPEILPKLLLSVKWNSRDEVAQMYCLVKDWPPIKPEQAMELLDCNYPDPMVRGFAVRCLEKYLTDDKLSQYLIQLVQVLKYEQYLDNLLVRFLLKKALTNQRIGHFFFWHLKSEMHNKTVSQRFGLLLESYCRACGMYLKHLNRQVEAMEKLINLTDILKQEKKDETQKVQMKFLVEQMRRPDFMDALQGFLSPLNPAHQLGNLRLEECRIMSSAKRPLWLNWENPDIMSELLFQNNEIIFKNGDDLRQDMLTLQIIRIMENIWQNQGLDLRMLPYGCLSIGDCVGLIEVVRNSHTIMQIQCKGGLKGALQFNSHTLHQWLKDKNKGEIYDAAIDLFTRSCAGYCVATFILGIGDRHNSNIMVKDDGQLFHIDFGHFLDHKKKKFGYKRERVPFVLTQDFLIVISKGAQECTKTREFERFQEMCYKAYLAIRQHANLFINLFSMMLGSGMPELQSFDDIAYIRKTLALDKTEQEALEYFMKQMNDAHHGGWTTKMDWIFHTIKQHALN
Chain of PI3Kα (P27986 whole entry partner, species assumed): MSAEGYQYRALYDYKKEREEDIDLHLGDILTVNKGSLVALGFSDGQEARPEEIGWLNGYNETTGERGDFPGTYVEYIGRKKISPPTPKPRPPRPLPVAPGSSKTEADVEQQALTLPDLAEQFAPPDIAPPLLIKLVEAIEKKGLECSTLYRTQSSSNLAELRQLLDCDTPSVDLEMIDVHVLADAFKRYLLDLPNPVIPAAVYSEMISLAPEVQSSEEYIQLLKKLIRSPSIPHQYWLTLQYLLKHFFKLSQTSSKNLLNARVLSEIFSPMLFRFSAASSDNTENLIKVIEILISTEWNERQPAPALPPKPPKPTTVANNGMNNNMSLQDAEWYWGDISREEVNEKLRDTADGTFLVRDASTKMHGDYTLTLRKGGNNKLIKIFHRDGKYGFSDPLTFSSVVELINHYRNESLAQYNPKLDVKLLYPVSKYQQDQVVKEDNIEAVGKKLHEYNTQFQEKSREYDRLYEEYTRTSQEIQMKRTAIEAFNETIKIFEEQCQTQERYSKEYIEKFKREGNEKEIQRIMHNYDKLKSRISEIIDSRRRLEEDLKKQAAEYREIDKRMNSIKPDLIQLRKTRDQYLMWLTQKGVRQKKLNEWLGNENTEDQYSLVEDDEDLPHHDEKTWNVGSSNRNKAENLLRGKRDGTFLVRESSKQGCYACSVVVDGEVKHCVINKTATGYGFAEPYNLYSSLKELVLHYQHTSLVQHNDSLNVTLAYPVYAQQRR

[3] = biological target: PI3Kγ (Homo sapiens, UniProt P48736); assay: PI3K-gamma fluorescence polarization assay; conditions: read-out: PI3Kγ Median IC50
Chain of PI3Kγ (P48736 whole entry, species assumed): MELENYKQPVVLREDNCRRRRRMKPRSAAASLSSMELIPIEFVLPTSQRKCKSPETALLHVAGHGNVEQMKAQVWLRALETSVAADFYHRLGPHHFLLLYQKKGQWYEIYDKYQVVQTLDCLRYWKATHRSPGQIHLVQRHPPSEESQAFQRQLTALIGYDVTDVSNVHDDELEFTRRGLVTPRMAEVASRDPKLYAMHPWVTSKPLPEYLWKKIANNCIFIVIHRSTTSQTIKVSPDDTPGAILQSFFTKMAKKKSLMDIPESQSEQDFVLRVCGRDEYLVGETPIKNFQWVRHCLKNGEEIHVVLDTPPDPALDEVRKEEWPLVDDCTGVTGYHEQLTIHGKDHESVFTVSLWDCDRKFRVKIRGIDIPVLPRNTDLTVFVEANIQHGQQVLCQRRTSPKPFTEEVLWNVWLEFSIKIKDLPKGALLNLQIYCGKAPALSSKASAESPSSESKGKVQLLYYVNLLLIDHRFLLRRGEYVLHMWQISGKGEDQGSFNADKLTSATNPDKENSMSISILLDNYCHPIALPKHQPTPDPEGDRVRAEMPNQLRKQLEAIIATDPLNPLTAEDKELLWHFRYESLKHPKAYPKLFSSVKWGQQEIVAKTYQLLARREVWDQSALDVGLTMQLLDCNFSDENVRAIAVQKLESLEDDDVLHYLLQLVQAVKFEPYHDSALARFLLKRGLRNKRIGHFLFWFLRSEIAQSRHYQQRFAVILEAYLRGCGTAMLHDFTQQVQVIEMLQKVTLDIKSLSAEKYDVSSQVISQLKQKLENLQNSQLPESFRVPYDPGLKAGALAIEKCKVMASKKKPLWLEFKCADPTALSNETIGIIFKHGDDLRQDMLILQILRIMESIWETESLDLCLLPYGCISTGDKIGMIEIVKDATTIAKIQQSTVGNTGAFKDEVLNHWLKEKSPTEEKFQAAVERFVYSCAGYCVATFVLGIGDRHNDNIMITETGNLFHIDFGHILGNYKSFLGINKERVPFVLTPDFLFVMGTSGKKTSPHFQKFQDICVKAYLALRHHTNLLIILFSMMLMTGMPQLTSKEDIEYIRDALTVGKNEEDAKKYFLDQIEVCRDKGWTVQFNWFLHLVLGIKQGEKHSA

Row | IC50 [1] | IC50 [2] | IC50 [3] | SMILES
1 | 64 nM | 326 nM | 748 nM | C[C@@H]1CN(C2CCN(c3ccnc4c3c(/C=C3\Oc5ccc(NC(=O)Nc6cccnc6)cc5C3=O)cn4C)CC2)C[C@H](C)O1 [Compound 239, 1-{(2Z)-2-[(4-{4-[(2R,6S)-2,6-dimethylmorpholin-4-yl]piperidin-1-yl}-1-methyl-1H-pyrrolo[2,3-b]pyridin-3-yl)methylidene]-3-oxo-2,3-dihydro-1-benzofuran-5-yl}-3-pyridin-3-ylurea]
2 | 8 nM | 1580 nM | > 10000 nM | Cn1cc(/C=C2\Oc3cccc(O)c3C2=O)c2c(-c3ccc(N4CCCCC4)cc3)ccnc21 [Compound 142, (2Z)-4-hydroxy-2-{[1-methyl-4-(4-piperidin-1-ylphenyl)-1H-pyrrolo[2,3-b]pyridin-3-yl]methylidene}-1-benzofuran-3(2H)-one]
3 | 23.5 nM | 2370 nM | 1420 nM | COc1ccnc(CN(C)C(=O)C2CCN(c3ccnc4c3c(/C=C3\Oc5ccc(NC(=O)Nc6cccnc6)cc5C3=O)cn4C)CC2)c1 [Compound 224, N-[(4-methoxypyridin-2-yl)methyl]-N-methyl-1-{1-methyl-3-[(Z)-{3-oxo-5-[(pyridin-3-ylcarbamoyl)amino]-1-benzofuran-2(3H)-ylidene}methyl]-1H-pyrrolo[2,3-b]pyridin-4-yl}piperidine-4-carboxamide]
4 | 26 nM | 274 nM | 2120 nM | Cn1cc(/C=C2\Oc3ccc(NC(=O)Nc4ccc(F)nc4)cc3C2=O)c2c(N3CC4CCC(C3)O4)ccnc21 [Compound 298, 1-(6-fluoropyridin-3-yl)-3-[(2Z)-2-{[1-methyl-4-(8-oxa-3-azabicyclo[3.2.1]oct-3-yl)-1H-pyrrolo[2,3-b]pyridin-3-yl]methylidene}-3-oxo-2,3-dihydro-1-benzofuran-5-yl]urea]
5 | 8.2 nM | 909 nM | 661 nM | Cn1cc(/C=C2\Oc3ccc(NC(=O)Nc4cccnc4)cc3C2=O)c2c(N3CCC(C(=O)N4CCCC4)CC3)ccnc21 [Compound 253, 1-[(2Z)-2-({1-methyl-4-[4-(pyrrolidin-1-ylcarbonyl)piperidin-1-yl]-1H-pyrrolo[2,3-b]pyridin-3-yl}methylene)-3-oxo-2,3-dihydro-1-benzofuran-5-yl]-3-pyridin-3-ylurea]
6 | 19 nM | > 10000 nM | > 10000 nM | Cn1cc(C=C2Oc3ccc(NC(=O)Nc4cccnc4)cc3C2=O)c2c(N3CCC(C(=O)NCCN4CCCC4)CC3)ccnc21 [Compound 203, 1-[1-methyl-3-({3-oxo-5-[(pyridin-3-ylcarbamoyl)amino]-1-benzofuran-2(3H)-ylidene}methyl)-1H-pyrrolo[2,3-b]pyridin-4-yl]-N-(2-pyrrolidin-1-ylethyl)piperidine-4-carboxamide]
7 | 90.5 nM | 167 nM | 219 nM | CCN(CCO)C(=O)c1ccc(-c2ccnc3c2c(/C=C2\Oc4cccc(O)c4C2=O)cn3C)cc1 [Compound 243, N-ethyl-N-(2-hydroxyethyl)-4-{3-[(Z)-(4-hydroxy-3-oxo-1-benzofuran-2(3H)-ylidene)methyl]-1-methyl-1H-pyrrolo[2,3-b]pyridin-4-yl}benzamide]
8 | 0.2 nM | 2 nM | 22 nM | CNS(=O)(=O)c1ccc(-c2ccnc3c2c(/C=C2\Oc4cc(O)cc(O)c4C2=O)cn3C)cc1 [Compound 77, 4-{3-[(Z)-(4,6-dihydroxy-3-oxo-1-benzofuran-2(3H)-ylidene)methyl]-1-methyl-1H-pyrrolo[2,3-b]pyridin-4-yl}-N-methylbenzenesulfonamide]
9 | 2 nM | 27 nM | 106 nM | Cn1cc(/C=C2\Oc3cccc(O)c3C2=O)c2c(-c3ccc(C(=O)N4CCNCC4)cc3)ccnc21 [Compound 136, (2Z)-4-hydroxy-2-({1-methyl-4-[4-(piperazin-1-ylcarbonyl)phenyl]-1H-pyrrolo[2,3-b]pyridin-3-yl}methylene)-1-benzofuran-3(2H)-one]
10 | 0.5 nM | 14 nM | 35 nM | Cn1cc(/C=C2\Oc3cc(O)cc(O)c3C2=O)c2c(-c3ccc(O)cc3)ccnc21 [Compound 19, (2Z)-4,6-dihydroxy-2-{[4-(4-hydroxyphenyl)-1-methyl-1H-pyrrolo[2,3-b]pyridin-3-yl]methylene}-1-benzofuran-3(2H)-one]
11 | – | 135 nM | 9170 nM | O=C1C(=Cc2cn(CCCN3CCOCC3)c3ncccc23)Oc2c1ccc(O)c2O [Compound 9, 6,7-dihydroxy-2-{[1-(3-morpholin-4-ylpropyl)-1H-pyrrolo[2,3-b]pyridin-3-yl]methylene}-1-benzofuran-3(2H)-one]
12 | – | 676 nM | 8500 nM | COc1ccc2c(n1)c(C=C1Oc3c(ccc(O)c3O)C1=O)cn2C [Compound 4, 6,7-dihydroxy-2-[(5-methoxy-1-methyl-1H-pyrrolo[3,2-b]pyridin-3-yl)methylene]-1-benzofuran-3(2H)-one]
13 | 69 nM | – | – | Cn1cc(/C=C2\Oc3ccc(NC(=O)Nc4ccc(Cl)nc4)cc3C2=O)c2c(N3CC4CCC(C3)O4)ccnc21 [Compound 299, 1-(6-chloropyridin-3-yl)-3-[(2Z)-2-{[1-methyl-4-(8-oxa-3-azabicyclo[3.2.1]oct-3-yl)-1H-pyrrolo[2,3-b]pyridin-3-yl]methylidene}-3-oxo-2,3-dihydro-1-benzofuran-5-yl]urea]
14 | 1200 nM | 525 nM | – | O=C1C(=Cc2c[nH]c3ncccc23)Oc2cc(O)cc(O)c21 [Compound 11, 4,6-dihydroxy-2-(1H-pyrrolo[2,3-b]pyridin-3-ylmethylene)-1-benzofuran-3(2H)-one]
15 | 1.6 nM | – | – | Cn1cc(/C=C2\Oc3cccc(O)c3C2=O)c2c(-c3ccc(C(=O)NCCO)cc3)ccnc21 [Compound 182, N-(2-hydroxyethyl)-4-{3-[(Z)-(4-hydroxy-3-oxo-1-benzofuran-2(3H)-ylidene)methyl]-1-methyl-1H-pyrrolo[2,3-b]pyridin-4-yl}benzamide]
16 | – | 5890 nM | > 10000 nM | CN1CCN(CCCn2cc(C=C3Oc4cc(O)cc(O)c4C3=O)c3cccnc32)CC1 [Compound 6, 4,6-dihydroxy-2-({1-[3-(4-methylpiperazin-1-yl)propyl]-1H-pyrrolo[2,3-b]pyridin-3-yl}methylene)-1-benzofuran-3(2H)-one]
17 | 1 nM | – | – | Cn1cc(/C=C2\Oc3cc(O)cc(O)c3C2=O)c2c(-c3ccc(OC(F)(F)F)cc3)ccnc21 [Compound 15, (2Z)-4,6-dihydroxy-2-({1-methyl-4-[4-(trifluoromethoxy)phenyl]-1H-pyrrolo[2,3-b]pyridin-3-yl}methylene)-1-benzofuran-3(2H)-one]
18 | – | 2340 nM | – | Cn1cc(C=C2Oc3c(ccc(O)c3O)C2=O)c2cccnc21 [Compound 2, 6,7-dihydroxy-2-[(1-methyl-1H-pyrrolo[2,3-b]pyridin-3-yl)methylene]-1-benzofuran-3(2H)-one]
19 | – | 203 nM | 9000 nM | CN1CCN(CCCn2cc(C=C3Oc4c(ccc(O)c4O)C3=O)c3cccnc32)CC1 [Compound 8, 6,7-dihydroxy-2-({1-[3-(4-methylpiperazin-1-yl)propyl]-1H-pyrrolo[2,3-b]pyridin-3-yl}methylene)-1-benzofuran-3(2H)-one]
20 | 0.5 nM | – | – | Cn1cc(/C=C2\Oc3cccc(O)c3C2=O)c2c(-c3ccc(C(=O)N4CCOCC4)cc3)ccnc21 [Compound 128, (2Z)-4-hydroxy-2-({1-methyl-4-[4-(morpholin-4-ylcarbonyl)phenyl]-1H-pyrrolo[2,3-b]pyridin-3-yl}methylene)-1-benzofuran-3(2H)-one]
21 | – | 44 nM | 200 nM | CN1CCN(c2ccnc3c2c(/C=C2\Oc4cc(O)cc(O)c4C2=O)cn3C)CC1 [Compound 44, (2Z)-4,6-dihydroxy-2-{[1-methyl-4-(4-methylpiperazin-1-yl)-1H-pyrrolo[2,3-b]pyridin-3-yl]methylene}-1-benzofuran-3(2H)-one]
22 | – | 1470 nM | 2970 nM | Cn1cc(/C=C2\Oc3ccc(NC(=O)NC4CCCCC4)cc3C2=O)c2c(N3CC4CCC(C3)O4)ccnc21 [Compound 236, 1-cyclohexyl-3-[(2Z)-2-{[1-methyl-4-(8-oxa-3-azabicyclo[3.2.1]oct-3-yl)-1H-pyrrolo[2,3-b]pyridin-3-yl]methylidene}-3-oxo-2,3-dihydro-1-benzofuran-5-yl]urea]
23 | 7.7 nM | – | – | CN(C)C(=O)CN(C)C(=O)C1CCN(c2ccnc3c2c(C=C2Oc4ccc(NC(=O)Nc5cccnc5)cc4C2=O)cn3C)CC1 [Compound 201, N-[2-(dimethylamino)-2-oxoethyl]-N-methyl-1-[1-methyl-3-({3-oxo-5-[(pyridin-3-ylcarbamoyl)amino]-1-benzofuran-2(3H)-ylidene}methyl)-1H-pyrrolo[2,3-b]pyridin-4-yl]piperidine-4-carboxamide]
24 | – | > 10000 nM | > 10000 nM | O=C1C(=Cc2cn(CCCN3CCN(CCO)CC3)c3ncccc23)Oc2c1ccc(O)c2O [Compound 10, 6,7-dihydroxy-2-[(1-{3-[4-(2-hydroxyethyl)piperazin-1-yl]propyl}-1H-pyrrolo[2,3-b]pyridin-3-yl)methylene]-1-benzofuran-3(2H)-one]
25 | – | 921 nM | > 10000 nM | O=C1C(=Cc2cn(CCCN3CCOCC3)c3ncccc23)Oc2cc(O)cc(O)c21 [Compound 7, 4,6-dihydroxy-2-{[1-(3-morpholin-4-ylpropyl)-1H-pyrrolo[2,3-b]pyridin-3-yl]methylene}-1-benzofuran-3(2H)-one]
26 | 2.9 nM | – | – | CN(C)S(=O)(=O)c1ccc(-c2ccnc3c2c(/C=C2\Oc4cccc(O)c4C2=O)cn3C)cc1 [Compound 180, 4-{3-[(Z)-(4-hydroxy-3-oxo-1-benzofuran-2(3H)-ylidene)methyl]-1-methyl-1H-pyrrolo[2,3-b]pyridin-4-yl}-N,N-dimethylbenzenesulfonamide]
